Source: the supplement of paper PMC4932681
Counter-ions that a name gives are not always drawn.

Tests used:
Assay in all cases: viability inhibition at highest dose (% inhibition); higher = more growth inhibition
BT-474 Tam1 = conditions: 4-OH-tamoxifen in medium 1 µM; 72 h
Method: (§1)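 Percent inhibition of viability (CellTiter-Glo, 72 h) at the highest tested concentration (D5), normalised to DMSO (0%) and 100 µM benzethonium chloride (100%). Resistant lines and the 'in 1µM tamoxifen' arms were tested in 1 µM 4-OH-tamoxifen.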

BT-474 Tam2 = conditions: 4-OH-tamoxifen in medium 1 µM; 72 h
Method: as §1

BT-474 = conditions: 72 h
Method: as §1

MCF-7 Tam1 = conditions: 4-OH-tamoxifen in medium 1 µM; 72 h
Method: as §1

MCF-7 = conditions: 72 h
Method: as §1

T-47D Tam1 = conditions: 4-OH-tamoxifen in medium 1 µM; 72 h
Method: as §1

T-47D Tam2 = conditions: 4-OH-tamoxifen in medium 1 µM; 72 h
Method: as §1

T-47D = conditions: 72 h
Method: as §1

ZR-75-1 Tam1 = conditions: 4-OH-tamoxifen in medium 1 µM; 72 h
Method: as §1

ZR-75-1 Tam2 = conditions: 4-OH-tamoxifen in medium 1 µM; 72 h
Method: as §1

ZR-75-1 = conditions: 72 h
Method: as §1

Structure (SMILES)	viability inhibition at highest dose (BT-474 Tam1)	viability inhibition at highest dose (BT-474 Tam2)	viability inhibition at highest dose (BT-474; 4-OH-tamoxifen in medium 0 µM)	viability inhibition at highest dose (BT-474; 4-OH-tamoxifen in medium 1 µM)	viability inhibition at highest dose (MCF-7 Tam1)	viability inhibition at highest dose (MCF-7; 4-OH-tamoxifen in medium 0 µM)	viability inhibition at highest dose (MCF-7; 4-OH-tamoxifen in medium 1 µM)	viability inhibition at highest dose (T-47D Tam1)	viability inhibition at highest dose (T-47D Tam2)	viability inhibition at highest dose (T-47D; 4-OH-tamoxifen in medium 0 µM)	viability inhibition at highest dose (T-47D; 4-OH-tamoxifen in medium 1 µM)	viability inhibition at highest dose (ZR-75-1 Tam1)	viability inhibition at highest dose (ZR-75-1 Tam2)	viability inhibition at highest dose (ZR-75-1; 4-OH-tamoxifen in medium 0 µM)	viability inhibition at highest dose (ZR-75-1; 4-OH-tamoxifen in medium 1 µM)
Oc1ncnc2[nH]ncc12 [Allopurinol] (drug 10000 nM)	-0.277	8.84	2.31	19.8	3.95	-21.9	-2.88	5	4.5	0.987	3.06	8.36	-2.7	-2.05	9.69
CN(C)c1nc(N(C)C)nc(N(C)C)n1 [Altretamine] (drug 10000 nM)	4.18	0.399	-14.8	-18.3	-9.06	-20.5	10.6	52.4	5.82	-20.9	18.5	0.782	-11.8	-19.3	-9.44
CO[C@H]1/C=C\C=C(/C)C(=O)NC2=CC(=O)C(NCCN(C)C)=C(C[C@@H](C)C[C@H](OC)[C@H](O)[C@@H](C)/C=C(\C)[C@@H]1OC(N)=O)C2=O [Alvespimycin (17-DMAG)] (drug 1000 nM)	78.3	68.2	49	76.7	30.2	65	47.8	35	49.2	49.9	37.1	32.9	44.1	32.7	47
CN1CC[C@H](c2c(O)cc(O)c3c(=O)cc(-c4ccccc4Cl)oc23)[C@H](O)C1 [Alvocidib (Flavopiridol)] (drug 10000 nM)	96.8	89.5	9.07	46.1	30.1	62.9	65	57.8	38.7	29.3	-0.409	49.9	55.9	50.1	46.6
NCCCNCCSP(=O)(O)O [Amifostine] (drug 10000 nM)	-0.954	-1.33	-2.99	1.56	-11.7	-14.2	-5.03	-2.35	7	-8.52	-1.52	1.78	-10.8	-8.06	-7.66
CCC1(c2ccc(N)cc2)CCC(=O)NC1=O (stereo not given) [Aminoglutethimide] (drug 10000 nM)	12.8	-1.52	-3.67	20	6.51	-3.88	8.64	4.05	4.12	-3.76	5.9	9.59	8.94	6.41	10.3
NCC(=O)CCC(=O)O [Aminolevulinic acid] (drug 10000 nM)	4.33	-2.75	-15.6	-12.3	-9.27	-30.6	7.57	-0.747	5.5	-13.1	-10.6	-7.01	-5.25	-15.3	-7.45
CN(C)CCN1C(=O)c2cccc3cc(N)cc(c23)C1=O [Amonafide] (drug 10000 nM)	-18.4	-15.7	-11.5	-35.2	7.15	51.1	20.4	5.27	11.3	23.6	-12	12.9	23.1	35.4	17.1
O=C1CN2Cc3c(ccc(Cl)c3Cl)N=C2N1 [Anagrelide] (drug 10000 nM)	2.18	3.44	-9.3	-22.2	-9.28	-21.2	2.74	8.7	-2.05	-25.6	-12.9	0.528	-5.88	-12.6	-4.05
CC(C)(C#N)c1cc(Cn2cncn2)cc(C(C)(C)C#N)c1 [Anastrozole] (drug 10000 nM)	-0.566	-3.02	-8.01	-8.68	-5.71	-4.15	-2.23	-5.37	2.94	-9.21	-3.66	-5.43	-10.2	-9.38	-3.76
CC(C)c1c(C(=O)Nc2ccccc2)c(-c2ccccc2)c(-c2ccc(F)cc2)n1CC[C@@H](O)C[C@@H](O)CC(=O)O [Atorvastatin] (drug 10000 nM)	12.4	28.2	13.8	7.75	13.7	23.9	19.8	29.2	18.7	35.6	36.5	44.5	39.9	48.4	36.5
CC(=O)OC[C@H]1O[C@@H]([S-])[C@H](OC(C)=O)[C@@H](OC(C)=O)[C@@H]1OC(C)=O.CCP(CC)CC.[Au+] [Auranofin] (drug 2500 nM)	96	66.5	58	97.5	22.4	91.7	33.9	54.3	59.3	31	36	20.7	12.5	15.9	25.5
CNC(=O)c1ccccc1Sc1ccc2c(/C=C/c3ccccn3)n[nH]c2c1 [Axitinib] (drug 10000 nM)	41.2	23.2	22	41.5	25	33	33.2	24.7	27.1	38.7	20.7	9.18	22.8	3.79	19.2
Nc1ncn([C@@H]2O[C@H](CO)[C@@H](O)[C@H]2O)c(=O)n1 [Azacitidine] (drug 10000 nM)	1.3	17.2	11.1	12.4	1.85	31.9	-0.966	23.6	21	16.3	-5.14	11.9	7.49	11.2	0.709
CC[C@@H]1C(=O)N(C)c2cnc(Nc3ccc(C(=O)NC4CCN(C)CC4)cc3OC)nc2N1C1CCCC1 [BI 2536] (drug 1000 nM)	27.9	11.8	26	48.3	7.18	39	29.9	30.3	34	29.2	19.9	26.8	21.6	12.7	26.7
COc1c(C)cnc(Cn2cnc3c(Cl)nc(N)nc32)c1C [BIIB021] (drug 10000 nM)	72.2	70.9	48.2	70.8	26.1	56.8	45.6	46	50	65.4	51.5	36.3	39.3	32.2	34.3
O=C(/C=C/c1cccc(S(=O)(=O)Nc2ccccc2)c1)NO [Belinostat  (PXD101)] (drug 10000 nM)	89	77.2	91.3	97.1	22.8	89.5	86.8	92	70.4	95.6	94.8	39.5	51.5	38.9	38.7
Cn1c(CCCC(=O)O)nc2cc(N(CCCl)CCCl)ccc21 [Bendamustine (hydrochloride hydrate)] (drug 10000 nM)	-12.7	-4.38	-0.115	-10.7	-4.92	17.8	-4.09	0.785	-2.82	-0.126	-12.1	-0.263	5.86	-7.06	-2.1
C=C(c1ccc(C(=O)O)cc1)c1cc2c(cc1C)C(C)(C)CCC2(C)C [Bexarotene] (drug 10000 nM)	-1.85	0.869	1.74	20.9	19.2	-1.91	5.85	25.9	9.65	13.7	14.2	-2.13	9.24	15.4	8.83
CC(O)(CS(=O)(=O)c1ccc(F)cc1)C(=O)Nc1ccc(C#N)c(C(F)(F)F)c1 (stereo not given) [Bicalutamide] (drug 10000 nM)	-10.4	-6.57	-18.1	-8.62	-6.64	-0.676	5.7	5.87	14.4	-16.4	10.8	-0.584	-0.971	-10.4	1.52
CCNC(=O)CCC/C=C\C[C@@H]1[C@@H](/C=C/[C@@H](O)CCc2ccccc2)[C@H](O)C[C@@H]1O [Bimatoprost] (drug 5500 nM)	-14.6	-16.2	-10.2	-22.1	-5.08	10.1	-1.71	-9.33	-4.37	-18.2	-17.9	-5.04	-15.8	-13.7	-4.04
Cc1c(N)nc([C@H](CC(N)=O)NC[C@H](N)C(N)=O)nc1C(=O)N[C@H](C(=O)N[C@H](C)[C@@H](O)[C@H](C)C(=O)N[C@H](C(=O)NCCc1nc(-c2nc(C(=O)NCCC[S+](C)C)cs2)cs1)[C@@H](C)O)[C@@H](OC1OC(CO)C(O)C(O)C1OC1OC(CO)C(O)C(OC(N)=O)C1O)c1cnc[nH]1 (stereo not given in full) [Bleomycin] (drug 10000 nM)	-4.38	-5.24	-15.7	-12	-1.39	12.6	11.9	23.9	-17.7	19.4	-2.9	12.1	-0.492	22.4	9.45
CC(C)C[C@H](NC(=O)[C@H](Cc1ccccc1)NC(=O)c1cnccn1)B(O)O [Bortezomib] (drug 1000 nM)	98.8	98.7	62.6	97.9	73.6	74.1	92.4	97.2	96.2	94.5	93.6	71.5	64.6	71	64
COc1cc(Nc2c(C#N)cnc3cc(OCCCN4CCN(C)CC4)c(OC)cc23)c(Cl)cc1Cl [Bosutinib] (drug 10000 nM)	96.4	95	83.1	95	50.7	81.6	78.4	72	77.5	41.6	66.7	22.6	57.5	17.9	28.8
Cc1cc2c(F)c(Oc3ncnn4cc(OC[C@@H](C)O)c(C)c34)ccc2[nH]1 [Brivanib] (drug 1000 nM)	6.47	7.57	-13	-17.5	-13	-12.6	-7.3	2.73	-3.24	-14.5	-3.49	-6.33	3.72	-7.74	-7.64
CCC/C=C/C=C/C(=O)O[C@H]1/C(=C/C(=O)OC)C[C@H]2C[C@H]([C@@H](C)O)OC(=O)C[C@H](O)C[C@@H]3C[C@H](OC(C)=O)C(C)(C)[C@](O)(C[C@@H]4C/C(=C/C(=O)OC)C[C@H](/C=C/C(C)(C)[C@]1(O)O2)O4)O3 [Bryostatin 1] (drug 100 nM)	-4.14	-0.0992	0.0548	-6.89	9.71	3.91	14.2	10.5	-13.3	-5.82	-5.94	10.2	3.49	12.6	-3.78
